Laboratory results taken from US20180344856A1, “COMPOSITIONS AND/OR ARTICLES WITH IMPROVED SOLUBILITY OF A SOLID ACTIVE” (The Procter & Gamble Company, priority 2012, published 2018).

Legend:
[1] = Solvency of solvents for (S)-Equol, visual check for crystals after storage; assay type: physicochemical; settings: solute (S)-Equol, 6% test solution, approximately 1:16 solute to solvent ratio, soluble = no visible crystals
Experimental: (§1) In the testing provided below, “soluble” (or “solubilize”), in relation to the solubility of a solid solute being tested, means that no visible crystals may be seen after a prescribed storage period at a storage condition. The storage period can vary. Suitable storage periods include about 24 hours, about 1 week, and about 30 days. Suitable storage conditions include ambient conditions or cold storage at 5° C. (approximately 1 atm). In certain embodiments, solubility may be determined after a 24 hour storage period at ambient conditions. In other embodiments, solubility may be determined after 20 days in cold storage. Other testing parameters may include storage for prolonged time periods (e.g., 30 day, 50 days, 60 days, 90 days) and at variable temperatures (e.g., 5° C., 50° C.).
(§2) The solvency of an isosorbide diester within the scope of the present invention was tested against two conventional, industry standard solvents. […] A test solution was of 6% Equol is prepared with heating to 70° C. Upon reaching 70° C., the examples may be mixed for about 10 minutes. Place mixtures in a covered vial and cool to the storage temperature. Solubility is evaluated for samples stored 24 hours at ambient conditions. Solubility is also evaluated for samples stored for 7 day at 5° C. followed by equilibration to ambient conditions.

[2] = Solvency of solvents for tetrahydrocurcuminoids (THC), visual check for crystals after storage; settings: solute tetrahydrocurcuminoids (THC), 3% test solution, approximately 1:32 solute to solvent ratio, soluble = no visible crystals
[3] = Solvency of solvents for hexylresorcinol, visual check for crystals after storage; assay type: physicochemical; settings: solute hexylresorcinol, 33.5% test solution, approximately 1:2 solute to solvent ratio, soluble = no visible crystals
Experimental: as §1
as §2, with “solution” for “solution was”, “33.5% hexylresorcinol” for “6% Equol”

[4] = then equilibration to ambient conditions

CCCCCCCCCCCC(=O)N(C)CC(=O)OC(C)C [Isopropyl lauroyl sarcosinate, isopropyl lauroyl sarcosinate]
Soluble: Solubility, 24 hour rest at Ambient Conditions ([1]; heated to 70° C.) | Solubility, 7 day storage at 5° C. [1, 4] | Solubility, 24 hour rest at Ambient Conditions ([2]; heated to 70° C.) | Solubility, 7 day storage at 5° C. [2, 4] | Solubility, 24 hour rest at Ambient Conditions ([3]; heated to 70° C.) | Solubility, 7 day storage at 5° C. [3, 4]
